Measured values published in ChEMBL document CHEMBL1201862, “PubChem BioAssay data set” (2004).
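Where inhibition never reached the appropriate level, the endpoint shown equals the highest concentration tested. Otherwise, values were interpolated linearly from a five-concentration, 48-hour dose response in 96-well plates. GI50 marks 50% less growth.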 Activity calls are given as the source filed them. Rule as the data show it: active = GI50 up to about 1.1 µM and inactive = higher.

Key:
Test in all cases: growth of human tumour cells (NCI), 48 h
A498 = system: A498
ACHN = system: ACHN
CAKI-1 = system: CAKI-1
EKVX = system: EKVX
HCT-15 = system: HCT-15
HOP-92 = system: HOP-92
IGROV-1 = system: IGROV-1
K562 = system: K562
LOX IMVI = system: LOX IMVI
MCF7 = system: MCF7
MDA-MB-231 = system: MDA-MB-231
Malme-3M = system: Malme-3M
NCI-H460 = system: NCI-H460
OVCAR-8 = system: OVCAR-8
PC-3 = system: PC-3
SF-539 = system: SF-539
SK-OV-3 = system: SK-OV-3
SNB-19 = system: SNB-19
T47D = system: T47D
UO-31 = system: UO-31

Structure (SMILES)	GI50 (A498)	GI50 (ACHN)	GI50 (CAKI-1)	GI50 (EKVX)	GI50 (HCT-15) [µM]	GI50 (HOP-92)	GI50 (IGROV-1)	GI50 (K562)	GI50 (LOX IMVI)	GI50 (MCF7)	GI50 (MDA-MB-231)	GI50 (Malme-3M)	GI50 (NCI-H460)	GI50 (OVCAR-8)	GI50 (PC-3)	GI50 (SF-539)	GI50 (SK-OV-3)	GI50 (SNB-19)	GI50 (T47D)	GI50 (UO-31)
O=C(O)C(Sc1ccc(Cl)cc1)Sc1ccc(Cl)cc1	34.8 µM (inactive)	47.4 µM (inactive)	82.8 µM (inactive)	31.5 µM (inactive)	36	23.7 µM (inactive)	39.8 µM (inactive)	33.1 µM (inactive)	41.9 µM (inactive)	92.3 µM (inactive)	66.8 µM (inactive)	71 µM (inactive)	34 µM (inactive)	43.9 µM (inactive)	47.4 µM (inactive)	39.3 µM (inactive)	> 100 µM (inactive)	40.6 µM (inactive)	64 µM (inactive)	29.7 µM (inactive)
Nc1ccccc1C(=O)NC(=O)Nc1ccc(Oc2ncc(Br)cn2)c(Cl)c1	< 0.01 µM (active)	0.0614 µM (active)	< 0.01 µM (active)	0.247 µM (active)	< 0.01	0.217 µM (active)	< 0.0118 µM (active)	< 0.01 µM (active)	< 0.01 µM (active)	< 0.01 µM (active)	0.0145 µM (active)	< 0.01 µM (active)	< 0.01 µM (active)	0.0119 µM (active)	< 0.01 µM (active)	< 0.01 µM (active)	< 0.01 µM (active)	0.0247 µM (active)	51.8 µM (inactive)	0.014 µM (active)
CC(C)(C)OC/C=C1\C(=O)O[C@H]2C[C@@H](O[Si](C)(C)C(C)(C)C)C[C@@H]12	> 100 µM (inactive)	> 100 µM (inactive)	> 100 µM (inactive)	> 100 µM (inactive)	> 100	36.4 µM (inactive)	> 100 µM (inactive)	26.1 µM (inactive)	98.2 µM (inactive)	35.4 µM (inactive)	> 100 µM (inactive)	> 100 µM (inactive)	> 100 µM (inactive)	81.1 µM (inactive)	66.5 µM (inactive)		> 100 µM (inactive)	> 100 µM (inactive)	27.9 µM (inactive)	53.8 µM (inactive)
COc1cc(OC)c2nc3occc3c(OC)c2c1	> 100 µM (inactive)	41.7 µM (inactive)	77.4 µM (inactive)	64.7 µM (inactive)	30.4	> 100 µM (inactive)	> 100 µM (inactive)		83.2 µM (inactive)	> 100 µM (inactive)	> 100 µM (inactive)	> 100 µM (inactive)	78 µM (inactive)	99.5 µM (inactive)	> 100 µM (inactive)	> 100 µM (inactive)	97.5 µM (inactive)	66.4 µM (inactive)	61.2 µM (inactive)	33.7 µM (inactive)
N#Cc1c(N)c2c(c(-c3ccccc3)c1-c1ccccc1)C(=O)N(NC(=O)c1ccccc1)C2=O	41.9 µM (inactive)	> 100 µM (inactive)	> 100 µM (inactive)	> 100 µM (inactive)	> 100	60.5 µM (inactive)	61.4 µM (inactive)	96.8 µM (inactive)	> 100 µM (inactive)	61.2 µM (inactive)	> 100 µM (inactive)	> 100 µM (inactive)	55.1 µM (inactive)	> 100 µM (inactive)	65.2 µM (inactive)	64.4 µM (inactive)		58.5 µM (inactive)	32.1 µM (inactive)	41.9 µM (inactive)
CCCCCC(=O)NC(=S)Nc1nnn[nH]1	> 100 µM (inactive)	> 10 µM (inactive)	> 100 µM (inactive)	> 100 µM (inactive)	> 100	> 100 µM (inactive)	> 100 µM (inactive)	> 100 µM (inactive)	> 100 µM (inactive)	> 100 µM (inactive)	> 100 µM (inactive)	> 100 µM (inactive)	> 100 µM (inactive)		> 100 µM (inactive)	> 100 µM (inactive)	> 100 µM (inactive)	> 100 µM (inactive)	> 100 µM (inactive)	> 100 µM (inactive)
COC(=O)/C=C/c1ccc2c(c1)CC1(C2)Cc2cc3c(cc2C1=O)CCC3 (stereo not drawn)	> 100 µM (inactive)	39.5 µM (inactive)	36.2 µM (inactive)	55.6 µM (inactive)	> 100	35.3 µM (inactive)	24.3 µM (inactive)	> 100 µM (inactive)	> 100 µM (inactive)	> 100 µM (inactive)	39 µM (inactive)	42 µM (inactive)	80.9 µM (inactive)	25.1 µM (inactive)	88.9 µM (inactive)	31 µM (inactive)		31.6 µM (inactive)	11.1 µM (inactive)	50.8 µM (inactive)
Cn1c(-c2cccs2)cc(-c2cccs2)c1-c1ccsc1	> 100 µM (inactive)	> 100 µM (inactive)	> 100 µM (inactive)	> 100 µM (inactive)	32.9	> 100 µM (inactive)		> 100 µM (inactive)	> 100 µM (inactive)	2.03 µM (inactive)	> 100 µM (inactive)		> 100 µM (inactive)	> 100 µM (inactive)	> 100 µM (inactive)	> 100 µM (inactive)	> 100 µM (inactive)	70.3 µM (inactive)	> 100 µM (inactive)	> 100 µM (inactive)
O=C1Nc2ccc(Cl)cc2C(=O)N2CCC[C@@H]12	> 100 µM (inactive)	> 100 µM (inactive)	> 100 µM (inactive)	> 100 µM (inactive)	> 100	> 100 µM (inactive)	> 100 µM (inactive)	> 100 µM (inactive)	> 100 µM (inactive)	> 100 µM (inactive)	> 100 µM (inactive)	> 100 µM (inactive)	> 100 µM (inactive)	> 100 µM (inactive)	> 100 µM (inactive)		> 100 µM (inactive)	> 100 µM (inactive)	> 100 µM (inactive)	> 100 µM (inactive)
C/C=C1\CN2CCC34c5ccccc5N(C)C35OCC4(C(=O)OC)C1CC25 (stereo not drawn)	> 100 µM (inactive)	90.4 µM (inactive)	99.3 µM (inactive)	77.1 µM (inactive)	23.1	28.6 µM (inactive)	41.6 µM (inactive)	48.9 µM (inactive)	14 µM (inactive)	40.7 µM (inactive)	> 100 µM (inactive)		25.5 µM (inactive)		27.9 µM (inactive)	83 µM (inactive)	> 100 µM (inactive)	59.8 µM (inactive)	28.8 µM (inactive)	70.6 µM (inactive)
COc1ccc(-c2nnc3nc4ccccc4n3c2O)cc1	> 100 µM (inactive)	> 100 µM (inactive)	> 100 µM (inactive)	> 100 µM (inactive)	> 100	54 µM (inactive)	> 100 µM (inactive)		> 100 µM (inactive)	> 100 µM (inactive)	31 µM (inactive)	> 100 µM (inactive)	> 100 µM (inactive)	> 100 µM (inactive)	> 100 µM (inactive)	> 100 µM (inactive)		> 100 µM (inactive)	> 100 µM (inactive)	> 100 µM (inactive)
